Assay results published in PubChem BioAssay AID1963979 (Molecular Pharmacology Branch, DTP, NCI, 2024).
pIC50: −log10 of the molar value. Where “and” joins values, the source holds several entries; their conditions need not be identical. Equal values may be shown once. Each block holds one molecule with its values, some of them ahead of it.

System: 361931-004-R-J1-PDC multicell spheroid viability
Assay: Anticancer human tumor 361931-004-R-J1-PDC patient-derived colon adenocarcinoma cell line growth inhibition [PI3K]
Conditions: for viability, T/C: stronger effect = lower value
How it was run: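 Complex 3D spheroids (cancer cells + endothelial HUVEC + mesenchymal stem cells); drug pairs of targeted agent x inavolisib/alpelisib/duvelisib/copanlisib; half-log series from ~Cmax, max 10 microM if Cmax unknown; endpoint viability.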
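Further: spheroids exposed to agents for seven days before readout.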

IC50 (curve of compound): 5.1 µM [middle of 4 runs]
SMILES: CCCS(=O)(=O)Nc1ccc(F)c(C(=O)c2c[nH]c3ncc(-c4ccc(Cl)cc4)cc23)c1F
viability, T/C (compound 0.0316 µM): 103% (2×) and 94% and 108% | viability, T/C (compound 0.1 µM): 103% and 101% (2×) and 98.4% | viability, T/C (compound 0.316 µM): 97.1% [middle of 4 runs] | viability, T/C (compound 1 µM): 92.3% [middle of 4 runs] | viability, T/C (compound 3.16 µM): 82% [middle of 4 runs] | viability, T/C (compound 10 µM): 8.31% [middle of 4 runs]

pIC50 (curve of first compound, second compound 0.00316 µM): < 5.00 | pIC50 (curve of first compound, second compound 0.01 µM): < 5.00 | pIC50 (curve of first compound, second compound 0.0316 µM): < 5.00 | pIC50 (curve of first compound, second compound 0.1 µM): < 5.00 | pIC50 (curve of first compound, second compound 0.316 µM): 7.31 | pIC50 (curve of first compound, second compound 1 µM): > 7.50
SMILES: CC(Cn1ccc(-c2ccc(C#N)c(Cl)c2)n1)NC(=O)c1cc(C(C)O)[nH]n1 (stereo unspecified) + COc1c(OCCCN2CCOCC2)ccc2c3n(c(=NC(=O)c4cnc(N)nc4)nc12)CCN3
viability, T/C (second compound 0.00316 µM, first compound 0.0316 µM): 103% | viability, T/C (second compound 0.00316 µM, first compound 0.1 µM): 92.1% | viability, T/C (second compound 0.00316 µM, first compound 0.316 µM): 97.7% | viability, T/C (second compound 0.00316 µM, first compound 1 µM): 103% | viability, T/C (second compound 0.00316 µM, first compound 3.16 µM): 103% | viability, T/C (second compound 0.00316 µM, first compound 10 µM): 98% | viability, T/C (second compound 0.01 µM, first compound 0.0316 µM): 102% | viability, T/C (second compound 0.01 µM, first compound 0.1 µM): 102% | viability, T/C (second compound 0.01 µM, first compound 0.316 µM): 99.1% | viability, T/C (second compound 0.01 µM, first compound 1 µM): 93.5% | viability, T/C (second compound 0.01 µM, first compound 3.16 µM): 98.1% | viability, T/C (second compound 0.01 µM, first compound 10 µM): 95% | viability, T/C (second compound 0.0316 µM, first compound 0.0316 µM): 95.1% | viability, T/C (second compound 0.0316 µM, first compound 0.1 µM): 94.7% | viability, T/C (second compound 0.0316 µM, first compound 0.316 µM): 83.5% | viability, T/C (second compound 0.0316 µM, first compound 1 µM): 93.4% | viability, T/C (second compound 0.0316 µM, first compound 3.16 µM): 89.4% | viability, T/C (second compound 0.0316 µM, first compound 10 µM): 78% | viability, T/C (second compound 0.1 µM, first compound 0.0316 µM): 81.5% | viability, T/C (second compound 0.1 µM, first compound 0.1 µM): 83.2% | viability, T/C (second compound 0.1 µM, first compound 0.316 µM): 76.8% | viability, T/C (second compound 0.1 µM, first compound 1 µM): 70.3% | viability, T/C (second compound 0.1 µM, first compound 3.16 µM): 78% | viability, T/C (second compound 0.1 µM, first compound 10 µM): 62.1% | viability, T/C (second compound 0.316 µM, first compound 0.0316 µM): 51.4% | viability, T/C (second compound 0.316 µM, first compound 0.1 µM): 49.5% | viability, T/C (second compound 0.316 µM, first compound 0.316 µM): 47.6% | viability, T/C (second compound 0.316 µM, first compound 1 µM): 44% | viability, T/C (second compound 0.316 µM, first compound 3.16 µM): 42.4% | viability, T/C (second compound 0.316 µM, first compound 10 µM): 30.6% | viability, T/C (second compound 1 µM, first compound 0.0316 µM): 20.5% | viability, T/C (second compound 1 µM, first compound 0.1 µM): 19% | viability, T/C (second compound 1 µM, first compound 0.316 µM): 15.8% | viability, T/C (second compound 1 µM, first compound 1 µM): 19.5% | viability, T/C (second compound 1 µM, first compound 3.16 µM): 16.7% | viability, T/C (second compound 1 µM, first compound 10 µM): 11.9%

pIC50 (curve of compound): < 7.00
SMILES: CC(C)n1nc(-c2ccc3oc(N)nc3c2)c2c(N)ncnc21
viability, T/C (compound 0.000316 µM): 99.8% [middle of 4 runs] | viability, T/C (compound 0.001 µM): 102% [middle of 4 runs] | viability, T/C (compound 0.00316 µM): 108% and 100% (2×) and 104% | viability, T/C (compound 0.01 µM): 108% and 100% (2×) and 101% | viability, T/C (compound 0.0316 µM): 99.3% [middle of 4 runs] | viability, T/C (compound 0.1 µM): 76% [middle of 4 runs]
